According to patent US5234942A, “Heterocyclic amides and leucotriene antagonistic use thereof” (ICI Americas Inc., priority 1984, dated 1993):

Tested on: leukotrienes
Test: leukotriene antagonist properties (test not specified; standard tests)
Conditions: in words
Procedure: Using this procedure, tracheal tissue strips are set up in groups of eight, four being used as time/vehicle controls and four for each test compound. All of the strips are exposed to 8×10^-9 M leukotriene E4 (LTE4) following the 50 minute equilibration period, and the response recorded. This concentration of LTE4 is that which produces a contraction equal to about 70-80% of the maximal effect of the agonist in this tissue. The LTE4 is washed out for 40-45 minutes and the procedure repeated twice to ensure that reproducible responses are being obtained with LTE4. Leukotriene C4 (LTC4) or D4 (LTD4), at a concentration of 8×10^-9 M, may be substituted for LTE4 in the same procedure.
Once tissue reproducibility has been established, test compounds are added to four baths following the 40 to 45 minute washout period. After a 10 minute incubation with test compound or vehicle, 8×10^-9 M LTE4, LTD4 or LTC4 is added and the response recorded. The percentage inhibition by the test compound or the percentage change in vehicle controls is calculated, for each tissue, according to the following equation: % inhibition=100 multiplied by (mg. tension increase of preceding response minus mg. tension increase in presence of compound) […]) divided by mg. tension increase of preceding response. The mean percentage change for vehicle controls and test compound are calculated and evaluated for significant differences by Students' t-test for unpaired data. Tissues exposed to test compounds were retested for responsiveness to LTE4, LTD4 or LTC4 following a 25 minute washout period. If tissue responsiveness was equal to responsiveness preceding exposure to the test compound additional studies were conducted. If responsiveness was not restored by the washing procedure, the tissues were discarded. The cyclooxygenase inhibitor, indomethacin, is present at 5×10^-6 M in all the determinations.
In general, compounds of formula I produce a significant increase in the time of onset of leukotriene initiated breathing changes following either oral, intravenous or intra peritoneal administration at a dose of 100 mg./kg., or much less, without any indication of untoward side-effects at several multiples of the minimum effective dose. By way of example, the compounds described in Examples 262, 158 and 168 produced significant increases in time required for onset of leukotriene D4 initiated disponoea following oral dosing at about 5 mg./kg., 43 mg./kg. and 50 mg./kg., respectively, 1-2 hours prior to leukotriene challenge.

| SMILES | leukotriene antagonist properties |
| --- | --- |
| COc1cc(C(=O)O)ccc1Cn1ccc2ccc(NC(=O)CC3CCCC3)cc21 [Example 114] | potent leukotriene antagonist properties |
| COc1cc(C(=O)O)ccc1Cn1ccc2ccc(NC(=O)OC3CCC3)cc21 [Example 122] | potent leukotriene antagonist properties |
| CCCCOC(=O)Nc1ccc2ccn(Cc3ccc(-c4nnn[nH]4)cc3OC)c2c1 [Example 157, 6-(butoxycarbonyl)amino-1-(2-methoxy-4-[1(H)-tetrazol-5-yl]benzyl)indole] | potent leukotriene antagonist properties |
| COc1cc(-c2nnn[nH]2)ccc1Cn1ccc2ccc(NC(=O)OC3CCCC3)cc21 [Example 158, 6-(cyclopentyloxycarbonyl)amino-1-(2-methoxy-4-[1(H)tetrazol-5-yl]benzyl)indole] | potent leukotriene antagonist properties |
| CCCCOC(=O)Nc1ccc2cnn(Cc3ccc(-c4nnn[nH]4)cc3OC)c2c1 [Example 161, 6-(butyloxycarbonyl)amino-1-(2-methoxy-4-[1(H)-tetrazol-5-yl]benzyl)indazole] | potent leukotriene antagonist properties |
| COc1cc(-c2nnn[nH]2)ccc1Cn1ncc2ccc(NC(=O)OC3CCCC3)cc21 [Example 162, 6-(cyclopentyloxycarbonyl)amino-1-(2-methoxy-4-[1(H)-tetrazole-5-yl]benzyl)indazole] | potent leukotriene antagonist properties |
| CCCCC(CC)C(=O)Nc1ccc2cnn(Cc3ccc(-c4nnn[nH]4)cc3OC)c2c1 (stereo not drawn) [Example 163, 6-(2-ethylhexanamido)-1-(2-methoxy-4-[2(H)-tetrazol-5-yl]benzyl)indazole] | potent leukotriene antagonist properties |
| COc1cc(C(=O)O)ccc1Cn1ncc2ccc(NC(=O)OC3CCCC3)cc21 [Example 170] | potent leukotriene antagonist properties |
| COc1cc(C(=O)O)ccc1Cn1ccc2ccc(NC(=O)OC3CCCC3)cc21 [Example 176, 4-[6-(cyclopentyloxycarbonyl)aminoindol-1-ylmethyl]-3-methoxybenzoic acid] | potent leukotriene antagonist properties |
| COc1cc(C(=O)O)ccc1Cn1ccc2ccc(NC(=O)CC3CCCCC3)cc21 [Example 209] | potent leukotriene antagonist properties |
| COc1cc(C(=O)O)ccc1Cn1cc(Cl)c2ccc(NC(=O)OC3CCCC3)cc21 [Example 221] | potent leukotriene antagonist properties |
| COc1cc(C(=O)O)ccc1Cn1cc(C(C)=O)c2ccc(NC(=O)OC3CCCC3)cc21 [Example 222] | potent leukotriene antagonist properties |
| COc1cc(C(=O)O)ccc1Cn1cc(Cl)c2ccc(NC(=O)CC3CCCC3)cc21 [Example 224] | potent leukotriene antagonist properties |
| CCCCC(CC)C(=O)Nc1ccc2c(C=CC(=O)OC)cn(Cc3ccc(C(=O)O)cc3OC)c2c1 (stereo not drawn) [Example 241, 4-(3-[2-methoxycarbonylvinyl]-6-[2-ethylhexanamido]indol-1-ylmethyl)-3-methoxybenzoic acid] | potent leukotriene antagonist properties |
| COc1cc(C(=O)NS(=O)(=O)c2ccccc2)ccc1Cn1ccc2ccc(NC(=O)OC3CCCC3)cc21 [Example 256, N-(4-[6-(cyclopentyloxycarbonyl)-aminoindol-1-ylmethyl]-3-methoxybenzoyl)benzenesulphonamide] | potent leukotriene antagonist properties |
| CCC(C(=O)Nc1ccc2cnn(Cc3ccc(C(=O)NS(=O)(=O)c4ccccc4)cc3OC)c2c1)c1ccccc1 (stereo not drawn) [Example 261, N-(4-[6-(2-phenylbutanamido)indazol-1-ylmethyl]-3-methoxybenzoyl)benzenesulphonamide] | potent leukotriene antagonist properties |
| COc1cc(C(=O)NS(=O)(=O)c2ccccc2)ccc1Cn1ncc2ccc(NC(=O)OC3CCCC3)cc21 [Example 262] | potent leukotriene antagonist properties |
| COc1cc(C(=O)NS(=O)(=O)c2ccccc2)ccc1Cn1ncc2ccc(NC(=O)CC3CCCC3)cc21 [Example 263, N-(4-[6-(2-cyclopentylacetamido)indazol-1-ylmethyl]-3-methoxybenzoyl)benzenesulphonamide] | potent leukotriene antagonist properties |
| COc1cc(C(=O)NS(=O)(=O)c2ccccc2C)ccc1Cn1ncc2ccc(NC(=O)CC3CCCC3)cc21 [Example 264] | potent leukotriene antagonist properties |
| COc1cc(C(=O)NS(=O)(=O)c2ccccc2C)ccc1Cn1ccc2ccc(NC(=O)CC3CCCC3)cc21 [Example 265] | potent leukotriene antagonist properties |
| COc1cc(C(=O)NS(=O)(=O)c2ccccc2N)ccc1Cn1ccc2ccc(NC(=O)CC3CCCC3)cc21 [Example 266] | potent leukotriene antagonist properties |
| COc1cc(C(=O)NS(=O)(=O)c2ccccc2)ccc1Cn1cc(C(C)=O)c2ccc(NC(=O)OC3CCCC3)cc21 [Example 277, N-(4-[3-acetyl-6-(cyclopentyloxycarbonyl)aminoindol-1-ylmethyl]-3-methoxybenzoyl)benzenesulphonamide] | potent leukotriene antagonist properties |
| COc1cc(C(=O)NS(=O)(=O)c2ccccc2)ccc1Cn1ccc2ccc(NC(=O)C3CCCC3)cc21 [Example 278] | potent leukotriene antagonist properties |
| COc1cc(C(=O)NS(=O)(=O)c2ccccc2)ccc1Cn1cc(Cl)c2ccc(NC(=O)OC3CCCC3)cc21 [Example 279] | potent leukotriene antagonist properties |
| COc1cc(C(=O)NS(=O)(=O)c2ccccc2)ccc1Cn1ccc2ccc(NC(=O)CC3CCCC3)cc21 [Example 280, N-(4-[6-(2-cyclopentylacetamido)indol-1-ylmethyl]-3-methoxybenzoyl)benzenesulphonamide] | potent leukotriene antagonist properties |
| COc1cc(C(=O)NS(=O)(=O)c2ccccc2)ccc1CN1CCc2ccc(NC(=O)CC3CCCC3)cc21 [Example 284, N-(4-[6-(2-cyclopentylacetamido)indolin-1-ylmethyl]-3-methoxybenzoyl)benzenesulphonamide] | potent leukotriene antagonist properties |
| CCCCOC(=O)Nc1ccc2cnn(Cc3ccc(C(=O)NS(=O)(=O)c4ccccc4)cc3OC)c2c1 [Example 294] | potent leukotriene antagonist properties |
